What was measured:
muscarinic receptor = test: Interaction with muscarinic receptor (displacement of 3H-QNB bound to rat cerebral cortex receptors); format: binding; set-up: unit not given here
Gastric acid secretion = Gastric acid secretion in the pylorus ligated rat (antisecretory activity); format: in vivo, rat (male Sprague-Dawley); settings: 4 hours
Method: Gastric acid secretion in the pylorus ligated rat
Male Sprague-Dawley rats weighing 150.-+.5 g fasting since 48 hours were used. Pylorus ligation was performed for 4 hours. The products under exam were administered by the oral route immediately after the ligation.

Carbachole salivation = Carbachole salivation in the rat; format: in vivo, rat (male Sprague-Dawley); settings: 62.5 mg/kg p.o., one hour before carbachole 1 mg/kg i.p.
Method: Carbachole salivation in the rat
The method cited by R. Turner: "Parasympatholytic Agents" in R. Turner "Screening Methods in Pharmacology" pag. 137. Academic Press. New York and London 1965, with slight changes, was used.
Male Sprague-Dawley rats, average weight 150.-+.5 g, fasting since 24 hours, were used.
The salivation was induced by the intraperitoneal administration of 1 mg/kg of carbachole.
The products under exam were administered orally one hour before the cholinergic stimulus.

in vivo = settings: mouse, po, Swiss mice, 14 days observation
Method: The acute toxicity was determined by administering by oral route the substances under exam to Swiss mice; average weight 20.-+.2 g. The observation period was 14 days. 10 Animals were used for each tested dose.

[1] = concentration 10^-5 (unit not given)
[2] = concentration 10^-6 (unit not given)
[3] = concentration 10^-7 (unit not given)

Compound | Interaction with muscarinic receptor (muscarinic receptor; [1]) | Interaction with muscarinic receptor (muscarinic receptor; [2]) | Interaction with muscarinic receptor (muscarinic receptor; [3]) | % Antisecretory activity (Gastric acid secretion; 6.25 mg/kg p.o.) [%] | % Antisecretory activity (Gastric acid secretion; 12.5 mg/kg p.o.) [%] | % Antisecretory activity (Gastric acid secretion; 25 mg/kg p.o.) [%] | Carbachol salivation - % protection (Carbachole salivation) [%] | LD50 at 336 h (in vivo) [mg/kg]
CN1CCN(CC(=O)N2c3ccccc3C(=S)Nc3cccnc32)CC1 [Compound 6, 11-[2-(4-Methylpiperazin-1-yl)acetyl]-5,11-dihydro-6H-pyrido[2,3-b][1,4]benzodiazepin-6-thione] | 85.5 | 43.9 | 7.5 | 7.2 | 25.8 | 51.4 | 10 | < 500
CN1CCN(CC(=O)N2c3ccccc3C(=O)Nc3cccnc32)CC1 [P, Pirenzepine, reference compound] | – | – | – | 7.9 | 46.0 | 71.5 | 10 | –
CC1(C)CCCN(CC(=O)N2c3ccccc3C(=O)Nc3cccnc32)C1 [Compound 10] | 30.2 | 0.2 | 0 | 12.4 | 24.7 | 41.5 | 0 | > 500
O=C1Nc2cccnc2N(C(=O)CN2CCCCCC2)c2ccccc21 [Compound 2, 11-[2-(Hexamethylenimino)acetyl]-5,11-dihydro-6H-pyrido[2,3-b][1,4]benzodiazepin-6-one] | 93.3 | 49.7 | 12.8 | 11.6 | 33.7 | 55.2 | 100 | > 500
CC(C(=O)N1c2ccccc2C(=O)Nc2cccnc21)N1CCCCC1 (stereo not shown) [Compound 1, 11-[2-(Piperidin-1-yl)propionyl]-5,11-dihydro-6H-pyrido-[2,3-b][1,4]benzodiazepin-6-one] | 46.6 | 3.96 | 0 | 10.3 | 36.3 | 71.3 | 0 | > 500
CC1CCCCN1CC(=O)N1c2ccccc2NC(=O)c2cccnc21 (stereo not shown) [Compound 5, 11-[2-(2-Methylpiperidin-1-yl)acetyl]-6,11-dihydro-5H-pyrido[2,3-b][1,5]benzodiazepin-5-one] | 96.9 | 71.7 | 14.6 | 18.7 | 58.4 | 66.7 | 100 | < 500
O=C1Nc2cccnc2N(C(=O)CCN2CCCCCC2)c2ccccc21 [Compound 4, 11-[3-(Hexamethylenimino)propionyl]-5,11-dihydro-6H-pyrido[2,3-b][1,4]benzodiazepin-6-one] | 94.4 | 54.3 | 3.0 | 21.5 | 50.2 | 64.1 | 50 | < 500
